Five compounds from patent publication EP4559922A1, “ANTIHISTAMINE COMPOUND, PREPARATION METHOD THEREFOR AND USE THEREOF” (HC Synthetic Pharmaceutical Co., Ltd., priority 2022, dated 2024) can be followed below.

The subject of series [1] is histamine-induced asthma in guinea pigs. Briefly: Antiasthmatic effect on histamine-induced asthma in guinea pigs (latency period). It is filed as in vivo. Conditions: 1 mg/kg oral gavage, sixty minutes after administration; histamine hydrochloride spray; capped at 8 minutes; X±s, n = 5. Here is the method:
The guinea pigs were placed in a polymethyl methacrylate bell jar and a histamine hydrochloride solution was sprayed ultrasonically (0.8 mg/mL) for 40 seconds. The time point at which the guinea pigs developed asthma was recorded. The time of convulsion and fall was taken as the latency period. Guinea pigs with a latency period exceeding 180 seconds were not selected. […] The guinea pigs were administered by oral gavage at a dose of 2 mL/kg·bw. Sixty minutes after the administration, the guinea pigs were placed in bell jars, and histamine hydrochloride solution was sprayed under the same conditions as in the previous selection. The latency period for the onset of asthma was recorded. […] The results were processed statistically.

A short description of series [2]: Solubility of the compounds in water, methanol and isopropanol. Conditions: for Solubility in Water: solvent water; for Solubility in Isopropanol: solvent isopropanol; for Solubility in Methanol: solvent methanol. It is filed as physicochemical.
Method: The solubility in water, methanol, and isopropanol of the compounds of the present disclosure and the comparative compounds were measured separately.
For series [3], the system named is isolated ileal smooth muscle of guinea pigs. Briefly: Effect on muscle tone of isolated ileal smooth muscle of guinea pigs (no histamine added). Conditions: X±s; for Smooth muscle tone After administration: 5 minutes after adding drug, n = 8; for Antispasmodic percentage: relative to tone before adding compound, n = 8, 5 min. Here is the method:
(§1) The guinea pig was knocked unconscious with a wooden stick, and the abdomen was immediately dissected to separate the ileum about 15 cm in length. The contents of the intestinal segment were flushed with Tyrode's solution and placed in Tyrode's solution at a constant temperature of 37°C for later use, and oxygen was supplied simultaneously. The experimental intestinal tract (1 cm in length) was cut and placed into 20 ml of Tyrode's solution at a constant temperature of 37°C with a continuous oxygen supply. One end of the intestine was fixed on the ventilation hook and the other end was connected to the muscle tone transducer and led to the computer interface. The muscle tone value of the ileal smooth muscle was recorded with a BL system. The experiment was carried out after the intestinal segment contraction became stable.
After the ileum contraction curve stabilized, the tone values before adding the drug were recorded, then the drug or DMSO was added, and the average tone value of the ileum contraction curve at that point was recorded 5 minutes later. The operation was repeated 8 times. The antispasmodic percentage was calculated according to the following formula. Antispasmodic percentage =; (Tone value before adding subject compound−Tone value after adding subject compound)/(Tone value before adding subject compound); × 100% [formula]

The nature of series [4]: Antagonism of histamine-induced contraction of isolated ileal smooth muscle of guinea pigs. Conditions: relative to tone after adding histamine; x±s, n = 8; 3 min. Here is the method: as §1
(§2) After the ileal peristalsis curve stabilized, the tone values before adding the compound were recorded, and then 0.05 mL of histamine was added. […] The operation was repeated 8 times. The antispasmodic percentage was calculated using the following equation. Antispasmodic percentage =; (Tone value after adding histamine−Tone value after adding subject compound)/(Tone value after adding histamine) × 100% [formula]

Another series relates to histamine. The description is as above. Conditions: 3 minutes after adding 0.05 mL compound following histamine; x±s, n = 8. Here is the method:
as §1, §2

Series [5] in a line: Accelerated stability test. Conditions: 40°C ± 2°C, relative humidity 75% ± 5%. Type of series: physicochemical.

Values after ≈ are worked out from the molar mass of the structure shown.

Consider `O=C1Cc2ccccc2C(=C2CCN(CCCOCOP(=O)(O)O)CC2)c2ccsc21` [Compound III-7], for which, in series [1], the Post-administration latency period was 377.23 ± 50.23 s. Further, in series [2], the “Solubility in Water” value amounted to 20 mg/mL (≈ 43.2 mM). Moreover, the “Smooth muscle tone After administration” value was 1.20 ± 0.25 g in series [3] and 1.16 ± 0.22 g in the series on histamine. Further, the Antispasmodic percentage in series [3] (5 min) turned out to be 30.23±19.04%; in series [4], 66.28±16.16%. For the same compound, the Content in series [5] (Month 0) came to 99.7%. For the same compound, the Description result in series [5] (Month 0), in series [5] (Month 1), in series [5] (Month 2), in series [5] (Month 3) and in series [5] (Month 6) was “White powder” in each case. Besides, the Related substances in series [5] (Month 0) is recorded as 0.03%; in series [5] (Month 1), 0.05%; in series [5] (Month 2), 0.10%; in series [5] (Month 3) it was 0.15%; in series [5] (Month 6) it was 0.34%. Further, in series [5] (storage 75% relative humidity, Month 1, read-out: Content), the remaining at 730 h was 99.7%. Besides, in series [5] (storage 75% relative humidity, Month 2, read-out: Content), the remaining at 1460 h stood at 99.6%. In addition, the remaining at 2190 h in series [5] (storage 75% relative humidity, Month 3, read-out: Content) was 99.5%. Moreover, in series [5] (storage 75% relative humidity, Month 6, read-out: Content), the remaining at 4380 h is 99.2%.
As for `OCCCCCCN1CCC(=C2c3ccc(Cl)cc3CCc3cccnc32)CC1` [Hydroxyhexyl desloratadine, reference compound], in series [1], the Post-administration latency period was 281.18 ± 53.76 s. Moreover, in series [2], the “Solubility in Isopropanol” value was 32 mg/mL (≈ 77.9 mM), the “Solubility in Methanol” value was 15 mg/mL (≈ 36.5 mM) and the “Solubility in Water” value is on record as “Practically insoluble”. Also, in series [3], the “Smooth muscle tone After administration” value is 1.30 ± 0.30 g and the Antispasmodic percentage is recorded as 24.42±11.13%. The compound also returned an Antispasmodic percentage in series [4] of 58.06±13.39%. Moreover, the “Smooth muscle tone After administration” value in the series with histamine came out at 1.43 ± 0.47 g.
`OCCCCCN1CCC(=C2c3ccc(Cl)cc3CCc3cccnc32)CC1` [Hydroxypentyl desloratadine, reference compound] returned a Post-administration latency period in series [1] of 284.29 ± 57.34 s. In series [2], the “Solubility in Isopropanol” value came to 29 mg/mL (≈ 73.1 mM), the “Solubility in Methanol” value was 19 mg/mL (≈ 47.9 mM) and the “Solubility in Water” value was “Practically insoluble”. In series [3], the “Smooth muscle tone After administration” value amounted to 1.28 ± 0.24 g and the Antispasmodic percentage was found to be 25.14±12.21%. Besides, the Antispasmodic percentage in series [4] came to 57.48±12.05%. For the same compound, the “Smooth muscle tone After administration” value in the series on histamine amounted to 1.44 ± 0.51 g.
Regarding `OCCCN1CCC(=C2c3ccc(Cl)cc3CCc3cccnc32)CC1` [Hydroxypropyl desloratadine, reference compound], the Post-administration latency period in series [1] came out at 285.28 ± 56.32 s. In addition, in series [2], the “Solubility in Isopropanol” value is 26 mg/mL (≈ 70.5 mM), the “Solubility in Methanol” value is 24 mg/mL (≈ 65.1 mM) and the “Solubility in Water” value is listed as “Practically insoluble”. In series [3], the “Smooth muscle tone After administration” value is 1.30 ± 0.24 g and the Antispasmodic percentage amounted to 23.97±11.12%. In series [4], this compound gave an Antispasmodic percentage of 57.05±12.07%. In addition, in the series with histamine, the “Smooth muscle tone After administration” value amounted to 1.46 ± 0.49 g.
`Cc1cncc(CN2CCC(=C3c4ccccc4CC(=O)c4sccc43)CC2)c1` [Rupatifen, reference compound]: the Post-administration latency period in series [1] came out at 253.23 ± 52.29 s. Moreover, in series [2], the “Solubility in Water” value is listed as “Practically insoluble”. The “Smooth muscle tone After administration” value stood at 1.31 ± 0.25 g in series [3] and 1.52 ± 0.46 g in the series with histamine. In addition, the Antispasmodic percentage in series [3] is given as 23.84±11.10%; in series [4] it was 55.42±11.38%.
